Measurements taken from patent US6057371A, “Sigma receptor ligands and the use thereof” (Virginia Commonwealth University, priority 1992, dated 2000).
Like-named read-outs stand apart in the source and are kept apart here.

Legend:
[1] = target: T1, sigma-2 binding site (Cavia porcellus, UniProt H0V073); test: biochemical; set-up: species or system guinea pig
T1 construct: Guinea pig whole membrane preparations (P2 microsomal fraction); from tissue; host or cells: guinea pig membranes (P2 microsomal fraction), as described by Weber et al; brain inferred from the sister test b489
T1 sequence (H0V073 1-176): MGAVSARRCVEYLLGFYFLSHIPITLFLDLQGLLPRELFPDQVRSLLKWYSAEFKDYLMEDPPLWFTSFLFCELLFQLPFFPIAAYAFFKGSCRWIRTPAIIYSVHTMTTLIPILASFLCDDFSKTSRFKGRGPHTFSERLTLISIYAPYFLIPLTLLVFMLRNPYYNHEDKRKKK
Procedure: For the standard equilibrium assay, the mixtures were incubated for 30 min. at room temperature, then filtered and the radioactivity determined as described above.

[2] = target: sigma receptor; test: Sigma receptor binding, [^3 H]DTG, brain membranes (both sigma-1 and sigma-2 sites); set-up: species or system guinea pig
Procedure: Sigma receptor binding assays using guinea pig brain membrane homogenates and the radioligand [^3 H]DTG were conducted as described by Weber et al.. […] Briefly, frozen whole guinea-pig brains (Biotrol, Indianapolis, Ind.) were homogenized in 10 volumes (w/v) of ice-cold 320 mM sucrose using a Brinkman polytron. The homogenate was centrifuged at 1,000× g for 20 minutes at 4° C. The supernatant was centrifuged at 20,000× g for 20 minutes at 4° C. The resulting pellet was resuspended in 10 initial volumes of 50 mM Tris/HCl buffer at pH 7.4 and centrifuged at 20,000× g for 20 minutes at 4° C. The resulting pellet was resuspended in 5 initial volumes ice-cold 50 mM Tris/Hcl […], and the final volume was adjusted to yield a protein concentration of 3 mg/ml. Aliquots of 20-ml were stored at -70° C. until used, with no detectable loss of binding.
The protein concentration in the 1-ml final incubation volume was 800 ug/ml, corresponding to 32 mg of brain tissue (original wet weight) and to a tissue concentration within the linear range for specific binding. […] Incubations were terminated after 90 minutes at room temperature by addition of 4 ml of ice-cold 50 mM Tris/HCl (pH 7.4) and rapid filtration of the membrane suspension through Whatman GF/B glass-fiber filters under vacuum, using a 48-well cell harvester (Brandel). The filters were washed 2 times with 4 ml of 50 mM Tris/HCl (pH 7.4). Each filter was suspended in 10 ml Cytoscint (ICI), and radioactivity was measured by liquid scintillation spectrometry at a counting efficiency of approximately 50%. IC50 values were determined by non-linear regression analyis.
(§1) Further sigma receptor binding assays against [^3 H]DTG and 5HT-1A binding assays were conducted according to the procedure outlined in the previous examples.
Radioligand Binding. […] Briefly, membranes (P2 microsomal fraction) were diluted 1:3 with 50 mM Tris HCl (pH 7.4) and 0.4 mL was combined with 50 μL [^3 H]DTG (1-2 nM final concentration) and 50 μL of competing drug or buffer. After 90 min at room temperature, incubation was terminated by rapid filtration under vacuum through Whatman GF/B glass fiber filters using a Brandel 48-well cell harvester. Filters were washed three times with 5 mL of cold Tris HCl buffer and each filter was suspended in 5 mL of Cytoscint (ICN Biomedical). Radioactivity was measured by liquid scintillation spectrometry at a counting efficiency of 50%.

[3] = target: T2, 5-HT1A receptor (Rattus norvegicus, UniProt P19327); test: biochemical; assay type: binding; set-up: 47: 529-540 (1986); from tissue; host or cells: brain tissue, inferred from the cited method (rat frontal cortex); settings: Table 6; read-out: 5HT-1A (nM) MEAN
T2 sequence (P19327 1-422): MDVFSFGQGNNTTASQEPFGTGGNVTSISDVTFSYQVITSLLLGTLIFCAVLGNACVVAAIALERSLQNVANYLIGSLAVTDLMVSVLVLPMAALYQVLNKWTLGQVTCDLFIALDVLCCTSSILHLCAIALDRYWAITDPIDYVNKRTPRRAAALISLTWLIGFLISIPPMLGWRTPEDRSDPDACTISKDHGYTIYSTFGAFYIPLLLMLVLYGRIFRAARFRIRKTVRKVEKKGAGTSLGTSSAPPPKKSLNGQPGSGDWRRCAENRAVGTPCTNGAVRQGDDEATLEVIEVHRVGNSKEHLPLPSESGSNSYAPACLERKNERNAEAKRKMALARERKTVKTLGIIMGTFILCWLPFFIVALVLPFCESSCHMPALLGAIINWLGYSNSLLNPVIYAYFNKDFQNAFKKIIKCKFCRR
Procedure: as §1

[4] = target: T3, sigma-1 binding site (Cavia porcellus, UniProt Q60492); test: biochemical; set-up: species or system guinea pig
T3 construct: Guinea pig whole membrane preparations (P2 microsomal fraction); from tissue; host or cells: guinea pig membranes (P2 microsomal fraction), as described by Weber et al; brain inferred from the sister test b489
T3 sequence (Q60492 whole entry): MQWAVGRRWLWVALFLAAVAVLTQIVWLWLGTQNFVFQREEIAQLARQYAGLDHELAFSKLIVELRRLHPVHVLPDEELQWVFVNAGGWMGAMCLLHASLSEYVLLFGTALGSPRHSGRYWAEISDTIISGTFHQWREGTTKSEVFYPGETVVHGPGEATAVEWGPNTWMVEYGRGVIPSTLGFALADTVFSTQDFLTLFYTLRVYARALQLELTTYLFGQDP
Procedure: [^3 H]DTG was purchased from DuPont/NEN.
The radioactivity on the filters was determined by scintillation spectrometry at an efficiency of about 50% using Cytoscint (ICN) scintillation fluid.

[5] = Table 10, read-out: SIGMA-2 KI vs. 3H-DTG + PENTAZOCINE MEAN
[6] = Table 7, Phenyl-(CH2)x -NH--(CH2)y -Phenyl, read-out: Ki
[7] = Table 18, read-out: IC50 (nM) at sigma-2
[8] = Table 10, read-out: SIGMA-1 KI vs. 3H-PENTAZOCINE MEAN
[9] = less than about 0.1, see Table 10
[10] = Example 9, read-out: sigma-2 IC50
[11] = running text, Examples 5 and 6, read-out: sigma receptor Ki
[12] = Table 16, read-out: Sigma-1 IC50

Row | SMILES | Ki [1, 5] [nM] | IC50 ([2]; Table 6, [^3 H]DTG) [nM] | IC50 [3] [nM] | Ki [4, 8] [nM] | S1/S2 Ratio ([4]; Table 10, sigma-1/sigma-2) | IC50 ratio of sigma-1/sigma-2 (sigma-1 selective compounds) [4, 9] | other results
1 | c1ccc2cc(CCCNCCCc3ccc4ccccc4c3)ccc2c1 [Compound 70, Di-[3-(2'-Naphthyl)propyl)amine] | 10000 | 116 | 3890 |  |  |  | 
2 | c1ccc(CCCCCCCNCc2ccccc2)cc1 [Compound 90, N-(7-phenylheptyl)benzylamine] | 38.5 | 3.95 | 3210 |  |  |  | IC50 ratio of sigma-1/sigma-2 (sigma-1 selective compounds) [4]: less than 0.1; sigma-2/sigma-1 selectivity [4]: 126; Ki ([4]; SIGMA-1 KI vs. 3H-P[…]): 2.3 nM; S1/S2 Ratio ([4]; guinea pig, microsomes): 0.060; Ki [2, 6]: 3.6 nM
3 | c1ccc(CCCCCNCc2ccccc2)cc1 [Compound 77, N-(5-phenylpentyl)benzylamine] | 34.3 | 2.07 | 759 | 0.32 | 0.009 | less than 0.1 | IC50 [1, 7]: 34 nM; IC50 ([4]; Table 15, read-out: IC50 (nM) at sigma-1): 0.32 nM; Ki [2, 6]: 2 nM
4 | CCOc1ccc(CC(C)NCCCc2ccccc2)cc1 (racemic) [Compound 83, N-(3-phenylpropyl)-1-(p-ethoxyphenyl)-2-propylamine] | 33.5 | 7.08 | 77.7 | 3.38 | 0.101 | less than 0.1 | IC50 ([1]; Table 17, read-out: IC50 (nM) at sigma-2): 34 nM; IC50 ([4]; Table 12, read-out: IC50 (nM) at sigma-1): 3.4 nM
5 | c1ccc(CCCCNCCc2ccccc2)cc1 [Compound 71, N-(4-phenylbutyl)phenethylamine] | 119 | 5.68 | 225 | 2.6 | 0.022 | less than 0.1 | IC50 [1, 10]: 120 nM; Ki [2, 6]: 5.5 nM
6 | c1ccc(CNCCCCCC2CCCCC2)cc1 [Compound 94, N-(5-cyclohexylpentyl)benzylamine] | 43.6 | 4.02 | 5550 |  |  |  | IC50 [4]: 0.81 nM; IC50 ratio of sigma-1/sigma-2 (sigma-1 selective compounds) [4]: less than 0.1; Ki ([4]; SIGMA-1 KI vs. 3H-P[…]): 0.81 nM; S1/S2 Ratio ([4]; guinea pig, microsomes): 0.019; Ki ([2]; Examples 5 and 6, listed as N-benzyl-(5-cyclohexyl)pentylamine, read-out: sigma receptor Ki): 1.3 nM; Ki [2, 11]: 3.4 nM
7 | c1ccc(CCCCN2CCN(Cc3ccccc3)CC2)cc1 [Compound 79, N-(4-phenylbutyl)-N'-benzylpiperazine] | 6.99 | 2.25 | 173 | 0.17 | 0.024 | less than 0.1 | 
8 | c1ccc(CCCCCN2CCC(Cc3ccccc3)CC2)cc1 [Compound 117, N-(5-phenylpentyl)-4-benzylpiperidine] | 2.78 | 2.11 | 781 | 0.58 | 0.210 |  | 
9 | CN1CCN(CCCCc2ccccc2)CC1 [Compound 106, N-(4-phenyl)-N'-methylpiperazine] | 899 | 49.8 |  | 19.3 | 0.022 | less than 0.1 | 
10 | C[C@@H](Cc1ccccc1)N(CCCc1ccccc1)Cc1ccccc1 [Compound 134, N-Benzyl-N-(3-phenylpropyl)-1-phenyl-2-propylamine] |  |  |  |  |  |  | Ki ([1]; SIGMA-2 KI vs. 3H-DTG + P[…]): 471 nM; Ki ([4]; SIGMA-1 KI vs. 3H-P[…]): 128 nM; S1/S2 Ratio ([4]; guinea pig, microsomes): 0.272; IC50 [2]: 199 nM
11 | c1ccc(CCCNCCc2ccccc2)cc1 [Compound 87, N-(3-phenylpropyl)phenethylamine] | 90.1 | 21.8 |  | 11.3 |  |  | IC50 [1, 10]: 90 nM; IC50 ([4]; Table 14, read-out: IC50 (nM) at sigma-1): 11.3 nM; Ki [2, 6]: 19 nM; Ki [2, 11]: 19 nM
12 | CCCN1CCN(c2ccccc2)CC1 [Compound 64, N-Phenyl-N'-propylpiperazine] | 538 |  | 784 | 81.6 |  |  | 
13 | CN(CCCc1ccc2ccccc2c1)CCCc1ccc2ccccc2c1 [Compound 74] | 461 | 81.9 |  | 30 | 0.065 | less than 0.1 | 
14 | c1ccc(CCCCCN2CCN(Cc3ccccc3)CC2)cc1 [Compound 129, N-Benzyl-N'-(5-phenylpentyl)-piperazine] | 11.3 | 2.29 |  | 0.41 | .036 |  | 
15 | CN(C)CCCCCC1CCCCC1 [Compound 128, N,N-Dimethyl-5-cyclohexylpentylamine] | 195 | 2.87 |  | 0.26 | 0.001 | less than 0.1 | sigma-2/sigma-1 selectivity ([4]; Example 8): 650; IC50 [4, 12]: 0.26 nM; change in sigma receptor affinity vs. analog ([2]; Examples 5 and 6, [^3 H]DTG): ~10 fold; Ki [2, 11]: 2.6 nM
16 | CCC(Cc1ccccc1)NCCCCc1ccccc1 (stereo not drawn) [Compound 101, N-(4-phenylbutyl)-1-phenyl-2-butylamine] | 104 | 15.7 |  | 2.7 | 0.026 | less than 0.1 | 
17 | CN1CCN(CC/C=C\c2ccccc2)CC1 [Compound 104, N-(4-phenyl-3(Z)-butenyl)-N'-methylpiperazine] | 1310 | 76.2 |  |  |  |  | IC50 ratio of sigma-1/sigma-2 (sigma-1 selective compounds) [4]: less than 0.1; Ki ([4]; SIGMA-1 KI vs. 3H-P[…]): 28.7 nM; S1/S2 Ratio ([4]; guinea pig, microsomes): 0.022
18 | c1ccc(CCCCCN2CCCCC2)cc1 [Compound 124, N-(5-phenylpentyl)piperidine] | 49.9 | 2.05 |  | 0.48 | 0.010 | less than 0.1 | sigma-2/sigma-1 selectivity ([4]; Example 8): 100
19 | NCCCCCC1CCCCC1.O=C(O)C(=O)O [Compound 126, 5-Cyclohexylpentylamine Hydrogen Oxalate] | 2550 | 219 |  | 191 | 0.075 | less than 0.1 | sigma-2/sigma-1 selectivity ([4]; Example 8): 13; IC50 [4, 12]: 190 nM; Ki [2, 11]: 200 nM
20 | c1ccc(CCCCCNCCc2ccccc2)cc1 [Compound 89, N-(5-phenylpentyl)phenethylamine] | 14.6 | 2.74 | 106 |  |  |  | IC50 [1, 7]: 15 nM; Ki [2, 6]: 2.4 nM; Ki [2, 11]: 2.4 nM
